Laboratory results reported in the NIST ThermoML archive (doi:10.1016/j.jct.2009.06.003).
Numbers after ± are expanded uncertainties.

Key:
[1] = DTA
[2] = Molar enthalpy of transition or fusion; conditions: DSC

Row | Structure (SMILES) | Normal melting temperature ([1]; Crystal) [°C] | Glass transition temperature [1] [°C] | Molar enthalpy of transition or fusion ([2]; Crystal) [kcal/mol] | Normal melting temperature ([1]; Crystal 1) [°C] | Triple point temperature ([1]; Crystal 2) [K] | Molar enthalpy of transition or fusion ([2]; Crystal 1) [kcal/mol] | Molar enthalpy of transition or fusion ([2]; Crystal 2) [kcal/mol]
1 | CCCC[n+]1ccc(C)cc1.O=S(=O)([N-]S(=O)(=O)C(F)(F)F)C(F)(F)F | 18.2 ± 0.5 | -77.2 ± 2 | 5.24 ± 0.158 | – | – | – | –
2 | Cc1cc[n+](C)cc1.Cc1ccc(S(=O)(=O)[O-])cc1 [1,4-dimethylpyridinium 4-methylbenzenesulfonate] | 151.7 ± 0.5 | – | 7.38 ± 0.21 | – | – | – | –
3 | CCCC[n+]1cccc(C)c1.Cc1ccc(S(=O)(=O)[O-])cc1 [1-butyl-3-methylpyridinium 4-methylbenzenesulfonate] | 50.6 ± 0.5 | -53.0 ± 2 | 0.366 ± 0.0406 | – | – | – | –
4 | CCn1cc[n+](C)c1.N#C[S-] [1-ethyl-3-methylimidazolium thiocyanate] | – | -97.5 ± 2 | – | – | – | – | –
5 | CCCCCCn1cc[n+](C)c1.N#C[S-] [1-hexyl-3-methylimidazolium thiocyanate] | – | -83.2 ± 2 | – | – | – | – | –
6 | CCCCCC[n+]1cccc(C)c1.Cc1ccc(S(=O)(=O)[O-])cc1 [1-hexyl-3-methylpyridinium 4-methylbenzenesulfonate] | 56.2 ± 0.5 | -39 ± 2 | 2.41 ± 0.0884 | – | – | – | –
7 | Cc1cc(C)[nH+]c(C)c1.Cc1ccc(S(=O)(=O)[O-])cc1 [2,4,6-trimethylpyridinium 4-methylbenzenesulfonate] | 130.6 ± 0.5 | -7.8 ± 2 | 5.47 ± 0.163 | – | – | – | –
8 | CC[S+](CC)CC.O=S(=O)([N-]S(=O)(=O)C(F)(F)F)C(F)(F)F [triethylsulfonium bis((trifluoromethyl)sulfonyl)imide] | – | -73.8 ± 2 | – | -10.3 ± 0.5 | 241.1 ± 2 | 1.67 ± 0.0669 | 2.25 ± 0.0813
